Key:
[1] = target: T1, P5CDH (Δ1-pyrroline-5-carboxylate dehydrogenase) (Staphylococcus aureus, UniProt Q2FDV3); test: P5CDH activity kit (FT-M52211); assay type: biochemical
T1 construct: gene rocA
T1 sequence (Q2FDV3 1-514): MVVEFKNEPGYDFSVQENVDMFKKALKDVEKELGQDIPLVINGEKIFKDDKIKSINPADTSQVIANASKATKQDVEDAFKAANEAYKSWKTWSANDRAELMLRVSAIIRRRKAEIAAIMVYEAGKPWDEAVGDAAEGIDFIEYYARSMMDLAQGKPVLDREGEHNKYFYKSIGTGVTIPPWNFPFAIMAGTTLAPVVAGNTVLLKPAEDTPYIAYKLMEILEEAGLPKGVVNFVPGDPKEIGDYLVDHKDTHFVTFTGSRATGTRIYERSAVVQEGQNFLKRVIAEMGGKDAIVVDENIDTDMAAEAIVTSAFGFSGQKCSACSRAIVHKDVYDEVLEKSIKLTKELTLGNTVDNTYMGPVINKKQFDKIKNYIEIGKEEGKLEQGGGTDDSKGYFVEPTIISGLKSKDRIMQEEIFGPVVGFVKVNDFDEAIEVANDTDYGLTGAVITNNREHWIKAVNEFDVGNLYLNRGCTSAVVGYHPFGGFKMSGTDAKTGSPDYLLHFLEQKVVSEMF

[2] = target: T1, P5CDH (Δ1-pyrroline-5-carboxylate dehydrogenase); test: bio-layer interferometry (Octet NTA, immobilised P5CDH); assay type: binding

**Q.** Which results are given for `CC1=C(O)C(=O)C=C2C1=CC=C1[C@@]2(C)CC[C@@]2(C)[C@@H]3C[C@](C)(C(=O)O)CC[C@]3(C)CC[C@]12C` [celastrol]?
**A.** IC50 [1]: 10.9 µM; Kd [2]: 55 µM

Source: PMC10477891, “Celastrol Combats Methicillin‐Resistant Staphylococcus aureus by Targeting Δ^1‐Pyrroline‐5‐Carboxylate Dehydrogenase” (Advanced Science, 2023)
